Results taken from paper PMC4434464 (ACS Medicinal Chemistry Letters, 2015).
Several values for one entry are separate records, joined by “and”; a condition that tells them apart may be missing. Equal entries are not always repeated. Entries after “also recorded” stand apart in the source; their conditions may differ.

Assays:
[1] = plasma protein binding, equilibrium dialysis, human; type: in vitro ADME
WSU-DLCL2 cells [2] = assay: 11-day proliferation assay, LCC; settings: n = 4
[3] = liver microsome clearance, mouse; type: in vitro ADME; settings: mouse liver microsomes
[4] = 7-day BID PK study, plasma exposure and tolerability; type: in vivo, mouse
[5] = rat oral PK of D-tartrate salt; type: in vivo; settings: for time above LCC: p.o., D-tartrate salt; for AUC(0-inf) / Cmax / Tmax: plasma, po
WSU-DLCL2 cells [6] = assay: predicted efficacious plasma exposure; settings: human; plasma protein binding corrected LCC
[7] = tested on: subcutaneous EZH2 mutant KARPAS-422 human DLBCL xenografts; assay: KARPAS-422 xenograft antitumor activity; type: in vivo, SCID mice; settings: 250 and 500 mg/kg BID orally, 21 days
[8] = single dose oral PK in SCID mice; type: in vivo
[9] = liver microsome clearance, human; type: in vitro ADME; settings: human liver microsomes
[10] = tested on: H3K27 methylation in bone marrow; assay: 7-day BID PD, H3K27 methylation in bone marrow; type: in vivo, mouse; settings: 500 mg/kg BID, end of day 7
[11] = tested on: H3K27me3 in WSU-DLCL2 cells; assay: ELISA of cellular H3K27me3 methyl mark reduction; settings: read-out: ELISA H3K27me3 IC50; WSU-DLCL2 (Y641F mutant-bearing) cells; n = 20
[12] = liver microsome clearance, rat; type: in vitro ADME; settings: rat liver microsomes
[13] = plasma exposure in the KARPAS-422 xenograft study; type: in vivo, SCID mice; settings: 250 mg/kg BID, D-tartrate salt, day 7
[14] = plasma protein binding, equilibrium dialysis, mouse; type: in vitro ADME
[15] = plasma protein binding, equilibrium dialysis, rat; type: in vitro ADME
[16] = tested on: H3K27 methyl mark in tumor tissue; assay: PD in KARPAS-422 tumor samples, H3K27 methyl mark; type: in vivo, SCID mice; settings: day 7, 250 and 500 mg/kg, over the 12 h time-course

## CCN(c1cc(C#CCN2CCOCC2)cc(C(=O)NCc2c(C)cc(C)[nH]c2=O)c1C)[C@H]1CC[C@H](N(C)CCOC)CC1 [EPZ011989, N-((4,6-Dimethyl-2-oxo-1,2-dihydropyridin-3-yl)methyl)-3-(ethyl((trans)-4-((2-methoxyethyl)(methyl)amino)cyclohexyl)amino)-2-methyl-5-(3-morpholinoprop-1-yn-1-yl)benzamide]
[1]
  fraction unbound: 0.97 ± 0.03
WSU-DLCL2 cells [2]
  LCC (lowest cytotoxic concentration), 11d proliferation WSU-DLCL2: 208 nM and 208 ± 75 (n = 4) nM
[3]
  percent hepatic extraction (%Eh): < 11%
[4]; 7-day BID study
  dose that achieves complete coverage over the predicted efficacious plasma level: 500 mg/kg BID
[4]; 125, 250, 500, 750 and 1000 mg/kg BID, 7 days
  tolerability: well tolerated
[5]; 30 mg/kg
  time above LCC: 4 h
  AUC(0-inf): 970 ng·h/mL
  Cmax: 240 ng/mL
  Tmax: 2 h
[5]; 100 mg/kg
  time above LCC: 8 h
  AUC(0-inf): 5600 ng·h/mL
  Cmax: 1600 ng/mL
  Tmax: 2.7 h
[5]; 300 mg/kg
  AUC(0-inf): 10000 ng·h/mL
  Cmax: 2900 ng/mL
  Tmax: 2.7 h
WSU-DLCL2 cells [6]
  predicted efficacious plasma exposure: 214 nM and 130 ng/mL
[7]
  effect on mean body weights: nominal effect on mean body weights
[7]; D-tartrate salt, SCID mice
  antitumor activity: significant tumor regression at both doses; also recorded: Robust tumor growth inhibition
[8]; single oral dose 250 mg/kg
  coverage over the LCC (time): approximately 8 h
[8]; single oral dose 500 mg/kg
  coverage over the LCC (time): approximately 8 h
[9]
  percent hepatic extraction (%Eh): 29%
[10]
  H3K27 methyl mark in bone marrow: complete ablation of the methyl mark
[11]
  IC50: 94 ± 48 nM
[12]
  percent hepatic extraction (%Eh): < 14%
[13]
  time over the predicted efficacious plasma levels: ≥ 6 h
[14]
  fraction unbound: 0.8 ± 0.11
[15]
  fraction unbound: 0.91 ± 0.06
[16]
  H3K27 methyl mark in tumor samples: robust H3K27 methyl mark reduction
